# Patent publication US20090317461A1, “ORAL COMPOSITIONS EFFECTIVE FOR THE TREATMENT OF ORAL CAVITY MALODOR ASSOCIATED WITH THE CONSUMPTION OF ODOR-CAUSING COMPOUNDS” (Wm. Wrigley Jr. Company, priority 2006, published 2009)
# Key:
# [1] = Sensory analysis: ten panelists rate odor intensity of raw macerated garlic solution with and without active; details: for reduction of odor (intensity) of raw macerated garlic in water: sensory panel; for Odor Intensity (0-100), Mean: N = 10 panelists
# Experimental: Sensory analysis of the solutions utilized for analytical analyses of the raw garlic described above was conducted by ten panelists who evaluated the odor intensity of the model solution (raw macerated garlic) with and without the different levels of added active. Odor intensity was assessed utilizing a 0-100 point scale ballot with 0=no odor and 100=very strong odor.
# [2] = Headspace diallyl disulfide of garlic model solution treated with menthone, GC/MS at 5 hour intervals (Example 3); details: menthone 1.63 mg in 2.5 g model solution; at each headspace analysis interval (5 hour intervals)
# Experimental: A model solution containing raw chopped garlic dispersed in water was prepared as described in Example 1. […] For comparison purposes, the diallyl disulfide content of the headspace of a control model solution (i.e., no menthone added) was also analyzed.
# [3] = Menthol treatment of garlic model solution, TIC chromatogram peak area (Example 47)
# Experimental: The following example details testing of menthol for treatment of solutions with characteristic garlic aroma. Model solutions containing raw chopped garlic dispersed in water were prepared as described in Example 1. Portions of model solution (2.5 g) were treated with menthol in varying amounts (0.5 mg, 1.0 mg, and 1.5 mg).
Structure (SMILES),reduction of odor (intensity) of raw macerated garlic in water ([1]; active concentration 0.3 mg/g),reduction of odor (intensity) of raw macerated garlic in water ([1]; active concentration 3 mg/g),"Odor Intensity (0-100), Mean ([1]; menthone 0.33 mg/g)","Odor Intensity (0-100), Mean ([1]; menthone 1 mg/g)","Odor Intensity (0-100), Mean ([1]; menthone 3 mg/g)",less diallyl disulfide in headspace than control model solution [2],reduction in odor-causing compounds ([3]; 0.5 mg in 2.5 g model solution),reduction in odor-causing compounds ([3]; 1 mg in 2.5 g model solution),reduction in odor-causing compounds ([3]; 1.5 mg in 2.5 g model solution)
CC(C)[C@@H]1CC[C@@H](C)CC1=O [menthone],48%,80%,5.2,2.7,2,at least 50%,,,
CC1CCC(C(C)C)C(O)C1 (stereo not drawn) [menthol],,,,,,,approximately 43%,approximately 51%,approximately 60%
